In ChEMBL document CHEMBL3885861, “Open TG-GATES”:

Species on record: Rattus norvegicus
Assay: Open TG-GATES - Regimen: Daily Repeat
Type: toxicity, organism-based, Sprague-Dawley
Parameters: regimen Daily Repeat, gender Male, age 6 weeks
Conditions: in vivo, po, 50 mg/kg, route gavage, dose level Middle; for APTT / Bas / Eos / Fbg / Hb / Ht / Lym / MCHC / MCV / Mono / Neu / PT / Plat / RBC / Ret / WBC: tissue Blood; for KIDNEY_L / KIDNEY_R / KIDNEY_TOTAL: tissue Kidney; for LIVER: tissue Liver; for ALP / ALT / AST / BUN / CRE / Ca / Cl / DBIL / GLC / IP / K / LDH / Na / PL / RALB / TBIL / TC / TG / TP / gamma-GTP: tissue Plasma

Question: What does the source list for C1CCC(C(CC2CCCCN2)C2CCCCC2)CC1 (centres undefined) [PERHEXILINE]?
Answer: TERMINAL_BW (72 h, time 3 day): 222.3 g; APTT (72 h, time 3 day): 19.9 s; Bas (72 h, time 3 day): 0%; Eos (72 h, time 3 day): 1%; Fbg (72 h, time 3 day): 339.8 mg/dL; Hb (72 h, time 3 day): 13.5 g/dL; Ht (72 h, time 3 day): 40.4%; Lym (72 h, time 3 day): 72.2%; MCHC (72 h, time 3 day): 33.4%; MCV (72 h, time 3 day): 62.8 fL; Mono (72 h, time 3 day): 2.2%; Neu (72 h, time 3 day): 23.2%; PT (72 h, time 3 day): 16.5 s; Plat (72 h, time 3 day): 125.7 x10_4/uL; RBC (72 h, time 3 day): 643.2 x10_4/ul; Ret (72 h, time 3 day): 6.1%; WBC (72 h, time 3 day): 117.4 x10_2/uL; KIDNEY_L (72 h, time 3 day): 1 g; KIDNEY_R (72 h, time 3 day): 1 g; KIDNEY_TOTAL (72 h, time 3 day): 2.1 g; LIVER (72 h, time 3 day): 10.7 g; ALP (72 h, time 3 day): 1647.4 IU/L; ALT (72 h, time 3 day): 40 IU/L; AST (72 h, time 3 day): 70.2 IU/L; BUN (72 h, time 3 day): 13.6 mg/dL; CRE (72 h, time 3 day): 0.1 mg/dL; Ca (72 h, time 3 day): 10.8 mg/dL; Cl (72 h, time 3 day): 107 meq/L; DBIL (72 h, time 3 day): 0 mg/dL; GLC (72 h, time 3 day): 184.8 mg/dL; IP (72 h, time 3 day): 7.6 mg/dL; K (72 h, time 3 day): 4.1 meq/L; LDH (72 h, time 3 day): 241.2 IU/L; Na (72 h, time 3 day): 141.8 meq/L; PL (72 h, time 3 day): 146.8 mg/dL; RALB (72 h, time 3 day): 3 g/dL; TBIL (72 h, time 3 day): 0.008 mg/dL; TC (72 h, time 3 day): 72.8 mg/dL; TG (72 h, time 3 day): 125 mg/dL; TP (72 h, time 3 day): 5.6 g/dL; gamma-GTP (72 h, time 3 day): 0.8 IU/L; TERMINAL_BW ([…], time 7 day): 248.7 g; TERMINAL_BW ([…], time 14 day): 302.3 g; TERMINAL_BW ([…], time 28 day): 361.8 g; APTT ([…], time 7 day): 22.2 s; Bas ([…], time 7 day): 0%; Eos ([…], time 7 day): 0.6%; Fbg ([…], time 7 day): 314 mg/dL; Hb ([…], time 7 day): 14.1 g/dL; Ht ([…], time 7 day): 41.6%; Lym ([…], time 7 day): 79.8%; MCHC ([…], time 7 day): 33.9%; MCV ([…], time 7 day): 62.6 fL; Mono ([…], time 7 day): 1.6%; Neu ([…], time 7 day): 16.6%; PT ([…], time 7 day): 15.8 s; Plat ([…], time 7 day): 113.7 x10_4/uL; RBC ([…], time 7 day): 666.4 x10_4/ul; Ret ([…], time 7 day): 4.7%; WBC ([…], time 7 day): 85.4 x10_2/uL; APTT ([…], time 14 day): 23.1 s; Bas ([…], time 14 day): 0%; Eos ([…], time 14 day): 0.4%; Fbg ([…], time 14 day): 303 mg/dL; Hb ([…], time 14 day): 14 g/dL; Ht ([…], time 14 day): 40.8%; Lym ([…], time 14 day): 82.2%; MCHC ([…], time 14 day): 34.3%; MCV ([…], time 14 day): 61.7 fL; Mono ([…], time 14 day): 1.4%; Neu ([…], time 14 day): 15%; PT ([…], time 14 day): 15.8 s; Plat ([…], time 14 day): 118.8 x10_4/uL; RBC ([…], time 14 day): 662.8 x10_4/ul; Ret ([…], time 14 day): 5.3%; WBC ([…], time 14 day): 116.6 x10_2/uL; APTT ([…], time 28 day): 22.2 s; Bas ([…], time 28 day): 0%; Eos ([…], time 28 day): 0.6%; Fbg ([…], time 28 day): 314 mg/dL; Hb ([…], time 28 day): 14.1 g/dL; Ht ([…], time 28 day): 41.6%; Lym ([…], time 28 day): 79.8%; MCHC ([…], time 28 day): 33.9%; MCV ([…], time 28 day): 62.6 fL; Mono ([…], time 28 day): 1.6%; Neu ([…], time 28 day): 16.6%; PT ([…], time 28 day): 15.8 s; Plat ([…], time 28 day): 113.7 x10_4/uL; RBC ([…], time 28 day): 666.4 x10_4/ul; Ret ([…], time 28 day): 4.7%; WBC ([…], time 28 day): 85.4 x10_2/uL; KIDNEY_L ([…], time 7 day): 1 g; KIDNEY_R ([…], time 7 day): 1 g; KIDNEY_TOTAL ([…], time 7 day): 2.1 g; KIDNEY_L ([…], time 14 day): 1.2 g; KIDNEY_R ([…], time 14 day): 1.2 g; KIDNEY_TOTAL ([…], time 14 day): 2.3 g; KIDNEY_L ([…], time 28 day): 1.3 g; KIDNEY_R ([…], time 28 day): 1.3 g; KIDNEY_TOTAL ([…], time 28 day): 2.5 g; LIVER ([…], time 7 day): 11.3 g; LIVER ([…], time 14 day): 12.9 g; LIVER ([…], time 28 day): 15 g; ALP ([…], time 7 day): 1686.4 IU/L; ALT ([…], time 7 day): 38.8 IU/L; AST ([…], time 7 day): 67 IU/L; BUN ([…], time 7 day): 18 mg/dL; CRE ([…], time 7 day): 0.2 mg/dL; Ca ([…], time 7 day): 10.5 mg/dL; Cl ([…], time 7 day): 106.2 meq/L; DBIL ([…], time 7 day): 0 mg/dL; GLC ([…], time 7 day): 202 mg/dL; IP ([…], time 7 day): 7.3 mg/dL; K ([…], time 7 day): 4.1 meq/L; LDH ([…], time 7 day): 192 IU/L; Na ([…], time 7 day): 142.8 meq/L; PL ([…], time 7 day): 166.2 mg/dL; RALB ([…], time 7 day): 3.1 g/dL; TBIL ([…], time 7 day): 0.004 mg/dL; TC ([…], time 7 day): 78.4 mg/dL; TG ([…], time 7 day): 181 mg/dL; TP ([…], time 7 day): 5.8 g/dL; gamma-GTP ([…], time 7 day): 1 IU/L; ALP ([…], time 14 day): 1470.4 IU/L; ALT ([…], time 14 day): 42.2 IU/L; AST ([…], time 14 day): 76.6 IU/L; BUN ([…], time 14 day): 18.6 mg/dL; CRE ([…], time 14 day): 0.2 mg/dL; Ca ([…], time 14 day): 10.7 mg/dL; Cl ([…], time 14 day): 107.4 meq/L; DBIL ([…], time 14 day): 0 mg/dL; GLC ([…], time 14 day): 209.8 mg/dL; IP ([…], time 14 day): 6.5 mg/dL; K ([…], time 14 day): 4.2 meq/L; LDH ([…], time 14 day): 231.4 IU/L; Na ([…], time 14 day): 143.2 meq/L; PL ([…], time 14 day): 155.2 mg/dL; RALB ([…], time 14 day): 3 g/dL; TBIL ([…], time 14 day): 0.002 mg/dL; TC ([…], time 14 day): 72.2 mg/dL; TG ([…], time 14 day): 178.6 mg/dL; TP ([…], time 14 day): 5.8 g/dL; gamma-GTP ([…], time 14 day): 1.6 IU/L; ALP ([…], time 28 day): 1171.8 IU/L; ALT ([…], time 28 day): 39.8 IU/L; AST ([…], time 28 day): 67.2 IU/L; BUN ([…], time 28 day): 18.8 mg/dL; CRE ([…], time 28 day): 0.2 mg/dL; Ca ([…], time 28 day): 10.4 mg/dL; Cl ([…], time 28 day): 107 meq/L; DBIL ([…], time 28 day): 0 mg/dL; GLC ([…], time 28 day): 209.2 mg/dL; IP ([…], time 28 day): 6.6 mg/dL; K ([…], time 28 day): 4 meq/L; LDH ([…], time 28 day): 186.8 IU/L; Na ([…], time 28 day): 143 meq/L; PL ([…], time 28 day): 156.4 mg/dL; RALB ([…], time 28 day): 3.1 g/dL; TBIL ([…], time 28 day): 0.004 mg/dL; TC ([…], time 28 day): 71.6 mg/dL; TG ([…], time 28 day): 157.4 mg/dL; TP ([…], time 28 day): 6.1 g/dL; gamma-GTP ([…], time 28 day): 1.4 IU/L
